{
  "source": "paper PMC8206213",
  "about": "“An L-2-hydroxyglutarate biosensor based on specific transcriptional regulator LhgR” (Nature Communications, 2021)",
  "key": {"[1]": {"tested_on": "LhgO", "assay": "Enzymatic assay of LhgO in crude extracts of P. putida KT2440 derivatives grown on different carbon sources (induction of lhgO under LhgR control)", "assay_type": "cell-based, Pseudomonas putida", "experimental": "The cells were harvested at mid-log phase, washed twice and resuspended in phosphate-buffered saline (PBS), then lysed by sonication on ice after the addition of 1 mM phenylmethylsulfonyl fluoride (PMSF). […] Protein concentrations of the supernatants were determined using the Bradford protein assay kit (Sangon, China). […] The 800 μL reaction solution contained 0.1 mM […], 0.05 mM DCPIP, 0.2 mM phenazine methosulfate (PMS) in PBS and 40 μL crude extracts."}, "[2]": {"tested_on": "LHGFR0N3C", "assay": "Influence of other compounds on the response of purified LHGFR0N3C to L-2-HG", "assay_type": "binding, Pseudomonas putida W619", "outline": "(§1)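 Purified L-2-HG biosensors were mixed 3:1 with test compounds in 50 mM Tris-HCl pH 7.4, excited at 430 nm, and the 528 nm (Venus)/485 nm (mTFP) emission was read. Responses were fitted with a Hill model giving apparent Kd and Hill slope.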"}, "[3]": {"tested_on": "LHGFR0N3C", "assay": "Specificity of purified LHGFR0N3C, emission ratio with 240 μM compounds", "assay_type": "binding, Pseudomonas putida W619", "conditions": "240 μM compound"}, "[4]": {"tested_on": "LHGFR0N7C expressed in HEK293FT cells", "assay": "Specificity of LHGFR0N7C expressed in permeabilized HEK293FT cells, 1 mM compounds", "assay_type": "cell-based, human (HEK293FT cells)", "conditions": "Supplementary Fig. 17d; Control about 1", "experimental": "(§2) To characterize the sensitivity and specificity of LHGFR expressed in HEK293FT cells, cells were trypsinized 48 h following transfection and suspended in 1× Hank’s balanced salt solution supplemented with 20 mM HEPES. […] Digitonin at a concentration of 10 μM was used to induce cell permeabilization and deplete intracellular L-2-HG for in vivo response curves construction. Then, the fluorescence intensities were determined by a SpectraMax i3 fluorescence plate reader (Molecular Devices, USA) with excitation at 430 nm and emission at 485 nm (mTFP) and 528 nm (Venus). Basal L-2-HG concentration in HEK293FT cells under physiological conditions was determined by substituting the emission ratios of non-permeabilized HEK293FT cells into the calibrated in vivo response curves."}, "[5]": {"tested_on": "LHGFR3N7C expressed in E. coli BL21(DE3)", "assay": "Control biosensor LHGFR3N7C expressed in E. coli, response to added compounds", "assay_type": "cell-based", "conditions": "Supplementary Fig. 14a", "experimental": "(§3) To characterize the sensitivity and specificity of LHGFR expressed in E. coli BL21(DE3), 90 μL cell suspensions following 8 h carbon starvation were mixed with 10 μL increasing concentrations of L-2-HG or other compounds, and then added into a black 96-well plate (total 100 μL/per well), the fluorescence intensities were determined using an EnSight microplate reader (PerkinElmer, USA) and the following instrument settings: excitation at 430 nm, emission at 485 nm (mTFP) and 528 nm (Venus), time intervals of 5 min, the temperature at 37 °C, and shake at 180 rpm."}, "[6]": {"tested_on": "LHGFR0N7C expressed in E. coli BL21(DE3)", "assay": "Specificity of LHGFR0N7C expressed in E. coli BL21(DE3), 1 mM compounds", "assay_type": "cell-based", "conditions": "Supplementary Fig. 13c", "experimental": "as §3"}, "[7]": {"tested_on": "LHGFR0N3C expressed in HEK293FT cells", "assay": "Specificity of LHGFR0N3C expressed in permeabilized HEK293FT cells, 1 mM compounds", "assay_type": "cell-based, human (HEK293FT cells)", "conditions": "1 mM compound, cells permeabilized with 10 μM digitonin, normalized to control", "experimental": "as §2"}, "[8]": {"tested_on": "LHGFR0N7C", "assay": "Influence of other compounds on the response of purified LHGFR0N7C to L-2-HG", "assay_type": "binding, Pseudomonas putida W619", "conditions": "Suppl. Fig. 9b; L-2-HG alone or with the compound; three replicates", "outline": "as §1"}, "[9]": {"tested_on": "LHGFR0N7C", "assay": "Specificity of purified LHGFR0N7C, emission ratio with 240 μM compounds", "assay_type": "binding, Pseudomonas putida W619", "conditions": "240 μM compound"}},
  "note": "“And” between values parts separate entries of the source, which are not always exact repeats. Equal entries are not always repeated.",
  "data": [
    {"smiles": "O=C(O)CC[C@@H](O)C(=O)O", "note": "[D-2-HG]", "values": [
      {"measurement": "LhgO activity", "setting": "[1]; crude extract of DcsiRDlhgO-pME6032 grown in MSM with the compound as sole carbon source", "result": "7.06E-04 and 6.93E-04 and 7.09E-04"},
      {"measurement": "Induction of lhgO expression / effector molecule of LhgR", "setting": "[1]; gene segment F2-lhgR-F1-lhgO in P. putida KT2440 derivatives", "result": "neither D-2-HG nor glutarate can serve as the effector molecule of LhgR"},
      {"measurement": "Influence on the response of LHGFR0N3C to L-2-HG", "setting": "[2]; 240 μM D-2-HG, 1 mM 2-KG or 1 mM ATP for dose-response curves", "result": "could barely affect the response of LHGFR0N3C to L-2-HG"},
      {"measurement": "Emission ratio", "setting": "[2]; Suppl. Fig. 9a, L-2-HG alone or with the compound, three replicates", "result": "2.0547 and 2.056 and 2.045"},
      {"measurement": "Emission ratio", "setting": "[3]", "result": "1.4562 and 1.441 and 1.426"},
      {"measurement": "Normalized emission ratio", "setting": "[4]", "result": "1.116 and 1.067 and 1.082"},
      {"measurement": "normalized emission ratio of control biosensor expressed in E. coli", "setting": "[5]; time 0 min", "result": "1.02 and 1.012 and 1.01 and 1.0239"},
      {"measurement": "normalized emission ratio of control biosensor expressed in E. coli", "setting": "[5]; time 5 min", "result": "1.007 and 1.013 and 1.012 and 1.022"},
      {"measurement": "normalized emission ratio of control biosensor expressed in E. coli", "setting": "[5]; time 10 min", "result": "1.011 and 1.012 (2×) and 1.02"},
      {"measurement": "normalized emission ratio of control biosensor expressed in E. coli", "setting": "[5]; time 15 min", "result": "1.008 and 1.007 and 1.013 and 1.022"},
      {"measurement": "normalized emission ratio of control biosensor expressed in E. coli", "setting": "[5]; time 20 min", "result": "1.004 and 1.013 and 1.022 and 1.028"},
      {"measurement": "normalized emission ratio of control biosensor expressed in E. coli", "setting": "[5]; time 25 min", "result": "1.0101 and 1.011 and 1.02 and 1.024"},
      {"measurement": "normalized emission ratio of control biosensor expressed in E. coli", "setting": "[5]; time 30 min", "result": "1.007 and 1.022 and 1.016 and 1.027"},
      {"measurement": "normalized emission ratio of control biosensor expressed in E. coli", "setting": "[5]; time 35 min", "result": "1.021 and 1.0176 and 1.025 and 1.027"},
      {"measurement": "normalized emission ratio of control biosensor expressed in E. coli", "setting": "[5]; time 40 min", "result": "1.019 (2×) and 1.013 and 1.028"},
      {"measurement": "normalized emission ratio of control biosensor expressed in E. coli", "setting": "[5]; time 45 min", "result": "1.015 and 1.017 and 1.0244 and 1.023"},
      {"measurement": "normalized emission ratio of control biosensor expressed in E. coli", "setting": "[5]; time 50 min", "result": "1.007 and 1.012 and 1.0275 and 1.019"},
      {"measurement": "normalized emission ratio of control biosensor expressed in E. coli", "setting": "[5]; time 55 min", "result": "1.011 (2×) and 1.037 and 1.027"},
      {"measurement": "normalized emission ratio of control biosensor expressed in E. coli", "setting": "[5]; time 60 min", "result": "1.016 and 1.014 and 1.0182 and 1.0226"},
      {"measurement": "normalized emission ratio of control biosensor expressed in E. coli", "setting": "[5]; time 65 min", "result": "1.014 and 1.022 and 1.029 and 1.023"},
      {"measurement": "normalized emission ratio of control biosensor expressed in E. coli", "setting": "[5]; time 70 min", "result": "1.021 and 1.015 and 1.038 and 1.03"},
      {"measurement": "normalized emission ratio of control biosensor expressed in E. coli", "setting": "[5]; time 75 min", "result": "1.0229 and 1.021 and 1.034 and 1.027"},
      {"measurement": "normalized emission ratio of control biosensor expressed in E. coli", "setting": "[5]; time 80 min", "result": "1.027 and 1.023 and 1.038 (2×)"},
      {"measurement": "normalized emission ratio of control biosensor expressed in E. coli", "setting": "[5]; time 85 min", "result": "1.021 and 1.027 and 1.032 and 1.0274"},
      {"measurement": "normalized emission ratio of control biosensor expressed in E. coli", "setting": "[5]; time 90 min", "result": "1.0277 and 1.033 and 1.04 and 1.032"},
      {"measurement": "normalized emission ratio of biosensor expressed in E. coli", "setting": "[6]; time 0 min", "result": "1.005 and 1.001 and 1.025"},
      {"measurement": "normalized emission ratio of biosensor expressed in E. coli", "setting": "[6]; time 5 min", "result": "1.058 and 1.062 and 1.055"},
      {"measurement": "normalized emission ratio of biosensor expressed in E. coli", "setting": "[6]; time 10 min", "result": "1.088 and 1.077 and 1.073"},
      {"measurement": "normalized emission ratio of biosensor expressed in E. coli", "setting": "[6]; time 15 min", "result": "1.099 and 1.097 and 1.073"},
      {"measurement": "normalized emission ratio of biosensor expressed in E. coli", "setting": "[6]; time 20 min", "result": "1.1106 and 1.107 and 1.081"},
      {"measurement": "normalized emission ratio of biosensor expressed in E. coli", "setting": "[6]; time 25 min", "result": "1.121 and 1.111 and 1.082"},
      {"measurement": "normalized emission ratio of biosensor expressed in E. coli", "setting": "[6]; time 30 min", "result": "1.109 and 1.1104 and 1.081"},
      {"measurement": "normalized emission ratio of biosensor expressed in E. coli", "setting": "[6]; time 35 min", "result": "1.129 and 1.12 and 1.084"},
      {"measurement": "normalized emission ratio of biosensor expressed in E. coli", "setting": "[6]; time 40 min", "result": "1.119 and 1.117 and 1.099"},
      {"measurement": "normalized emission ratio of biosensor expressed in E. coli", "setting": "[6]; time 45 min", "result": "1.1243 and 1.118 and 1.09"},
      {"measurement": "normalized emission ratio of biosensor expressed in E. coli", "setting": "[6]; time 50 min", "result": "1.133 and 1.117 and 1.095"},
      {"measurement": "normalized emission ratio of biosensor expressed in E. coli", "setting": "[6]; time 55 min", "result": "1.1262 and 1.1195 and 1.107"},
      {"measurement": "normalized emission ratio of biosensor expressed in E. coli", "setting": "[6]; time 60 min", "result": "1.117 and 1.122 and 1.102"},
      {"measurement": "normalized emission ratio of biosensor expressed in E. coli", "setting": "[6]; time 65 min", "result": "1.12 and 1.121 and 1.101"},
      {"measurement": "normalized emission ratio of biosensor expressed in E. coli", "setting": "[6]; time 70 min", "result": "1.122 and 1.126 and 1.113"},
      {"measurement": "normalized emission ratio of biosensor expressed in E. coli", "setting": "[6]; time 75 min", "result": "1.124 and 1.132 and 1.112"},
      {"measurement": "normalized emission ratio of biosensor expressed in E. coli", "setting": "[6]; time 80 min", "result": "1.131 and 1.12 and 1.117"},
      {"measurement": "normalized emission ratio of biosensor expressed in E. coli", "setting": "[6]; time 85 min", "result": "1.127 and 1.1355 and 1.123"},
      {"measurement": "normalized emission ratio of biosensor expressed in E. coli", "setting": "[6]; time 90 min", "result": "1.127 and 1.137 and 1.122"},
      {"measurement": "Normalized emission ratio", "setting": "[7]", "result": "1.056 and 1.057 and 1.069"},
      {"measurement": "Emission ratio", "setting": "[8]", "result": "2.616 and 2.6121 and 2.633"},
      {"measurement": "Emission ratio", "setting": "[9]", "result": "1.984 and 1.994 and 1.98"}
    ]}
  ]
}
